# What was measured:
# LPS-induced TNFα = test: 28-day mouse side-effect model, LPS-induced serum TNFα suppression; type: in vivo; conditions: oral gavage 28 days, LPS challenge
# Procedure: (§1) 10-12 week old female Swiss Webster mice (Taconic, Germantown, N.Y., U.S.A.) weighing 27-29 grams are used in accordance with the guidelines of the Institutional Animal Care and Use Committee and in accordance with NIH guidelines on laboratory animal welfare. Mice are acclimated to the Pfizer animal facility for 3-7 days prior to being placed on study. Prednisolone and DAGR compounds are administered by oral gavage for a total of 28 days. Each treatment group generally contains 8-10 mice. To establish a dosing regimen for the studies, a pilot pharmacodynamic time course experiment is conducted to quantify TNFa repression after a single ED80 dose (determined from the acute LPS endotoxemia mouse model). […] DAGR compounds vary in their required frequency of doses.
# (§2) Body weights are measured on the first and last day of each experiment. Blood samples are obtained after ˜3 weeks of dosing for steady-state pharmacokinetic analysis. To assess compound effects on LPS-induced TNF-a, all mice receive an intraperitoneal injection of LPS (Salmonella Typhosa, Sigma, St. Louis, L-7895) 2.5 hr after the last dose on day 28. Mice are sacrificed 90 min. after LPS administration. Serum samples are assayed for osteocalcin and TNFa using the Linco multiplex assay (St. Charles, Mo.) and Luminex 100 (Austin, Tex.). Samples are diluted 1:20 and the assay is run according to manufacturer's instructions. An osteocalcin standard is purchased separately from Biomedical Technologies Incorporated (Stoughton, Mass.). Serum insulin is measured to assess compound effects on insulin resistance. Insulin was measured using the UltraSensitive Mouse EIA kit from Alpco Diagnostics (Salem, N.H.) following the manufacturer's protocol.
# (§3) ED50 and ED80 values are obtained for the various parameters using four-parameter logistic fits of data. For each experiment/dose group, outliers are detected by calculating the number of standard deviations each mouse's value was from the mean of their group and then dividing by the standard deviation of the group. The means and standard deviations used in this calculation omitted the value being examined so that, if it were an outlier, it would have no influence. If the value being examined is more than 2.5 standard deviations from the mean, it was not used in the rest of the calculations.
# (§4) Percent inhibition values are then calculated for each animal using the means of the vehicle and 10 mpk prednisone control groups. The individual mouse percent inhibition values are then fit to a four-parameter logistic model using the area under curve mean for each group. Since all four parameters are estimated and the lower plateau is not fixed at 0% and the upper plateau was not fixed at 100%, the ED50 and ED80 values are calculated by using an inverse calibration formula for a response equal to 50% or 80%. The designation “nd” means not determined.
# osteocalcin = test: 28-day mouse side-effect model, serum osteocalcin suppression; type: in vivo; conditions: oral gavage 28 days
# Procedure: as §1, §2, §3, §4
# serum insulin = test: 28-day mouse side-effect model, serum insulin; type: in vivo; conditions: oral gavage 28 days
# Procedure: as §1, §2, §3, §4
# IL-1β = test: LPS-induced human whole blood, IL-1β release; type: cell-based; conditions: Homo sapiens, mean of donors
# Procedure: (§5) Venous blood from human donors was collected as 10 ml aliquots in tubes containing sodium heparin (BD Vacutainer from Becton Dickinson and Company, Franklin Lakes, N.Y.). Blood was added to sterile polystyrene round bottom 96-well tissue culture plates (Corning Costar) at 180 Blood was placed in a humidified 37 C incubator with 5% CO2 while compounds were prepared (nearly 60 minutes).
# (§6) Compounds were prepared from 10 mM stock solutions in dimethylsulfoxide (DMSO, Sigma-Aldrich). Stock compound was diluted in DMSO to give appropriate starting concentration then diluted serially 1/3 in DMSO (i.e. 15 μl compound+30 μl DMSO), followed by diluting each serial dilution 1/167 into vehicle solution (2% DMSO in phosphate buffered saline (Dulbecco's Phosphate Buffered Saline without calcium chloride without magnesium chloride, Invitrogen Corporation, Carlsbad Calif.)). Compound or vehicle was added to blood in 10 μl aliquots as triplicates, omitting the outside wells to minimize possible edge effects. The final highest concentration of each compound in the assay ranged from 3 to 0.3 μM. Final DMSO concentration in the assay was 0.1%. The plate containing the samples was gently vortexed to mix and replaced in the incubator. LPS stock (E. coli serotype 0111:B4, Sigma-Aldrich), stored in aliquots of 100 μg/ml in RPMI at −20° C., was diluted […] in RPMI to make a working stock solution. After 60 minutes of incubation, 10 μl of the prepared LPS working stock was added to the blood to a final concentration of 100 ng/ml. Wells to be used as negative control received RPMI media with no LPS. The plate was again gently vortexed and the plates incubated overnight for 22 hours. Following incubation, the blood was centrifuged at 1500×g for 5 minutes and the plasma removed to either freeze at −20° C. or assay for cytokine release.
# (§7) IL-1β, IFNγ and TNFα protein levels were measured using Meso Scale assay kits (Meso Scale Discovery, Gaithersburg, Md., U.S.A.). Reagents were allowed to come to room temperature. Meso Scale plates were blocked with 150 μl of Meso Scale Block B diluent, gently shaking at room temperature for 60 minutes. Plates were washed 3× with wash buffer (PBS, Invitrogen Corporation, with 0.05% Tween-20, Sigma-Aldrich). Calibrators for standard curves were prepared in human plasma/serum assay diluent as a 1/5 serial dilution to achieve final concentrations ranging from 50000 pg/ml to 3.2 pg/ml. Samples were added at 10 to 20 μl/well and calibrators were added at 20 μl/well then incubated at room temperature with gentle shaking for 2 hours. Plates were again washed 3× with wash buffer. Detection antibody was diluted in human plasma/serum antibody diluent to 1 μg/ml and added to the plate at 20 μl/well. Plates were incubated as before for 2 hours and washed again. Read Buffer T (4×) was diluted 1:1 with mqH20 to 2× concentration and 150 μl added to each well. Plates were read on the SECTOR Imager 6000 (Meso Scale Discovery) to generate raw signal values.
# (§8) Individual sample signal values were compared to positive and negative controls (vehicle treated blood with LPS and vehicle treated blood without LPS, respectively) to generate % inhibition. Triplicate values were averaged for each donor. The values for three or four donors were averaged and graphed using 4-parameter fit curves in the LabStats plug-in for the Microsoft Excel application.
# IFNγ = test: LPS-induced human whole blood, IFNγ release; type: cell-based; conditions: Homo sapiens, mean of donors
# Procedure: as §5, §6, §7, §8
# TNFα = test: LPS-induced human whole blood, TNFα release; type: cell-based; conditions: Homo sapiens, mean of donors
# Procedure: as §5, §6, §7, §8
# IL-6 = test: LPS-induced human whole blood, IL-6 release; type: cell-based; conditions: mean of donors
smiles,measurement,setting,value
"Cc1nc(Br)ccc1NC(=O)c1ccc2c(c1)CC[C@@H]1C[C@@](O)(c3ccccc3)[C@](C)(O)C[C@@]21Cc1ccccc1 [Comparator B, (4bR,6R,7R,8aR)-4b-benzyl-N-(6-bromo-2-methylpyridin-3-yl)-6,7-dihydroxy-6-methyl-7-phenyl-4b,5,6,7,8,8a,9,10-octahydrophenanthrene-2-carboxamide]",ED50,"LPS-induced TNFα; 672 h, read-out: TNFα Suppression (ED50 dose)",0.083 mg/kg
same,TNFα Suppression (ED80 dose),LPS-induced TNFα,0.45
same,ED50 at 28 days,"osteocalcin; female, Swiss Webster, read-out: Osteocalcin Suppression (ED50 dose)",0.21 mg/kg
same,Osteocalcin Suppression (ED80 dose),osteocalcin,0.97
same,ED50 at 28 days,"serum insulin; female, Swiss Webster, read-out: Insulin (ED50 dose)",1.04 mg/kg
same,Insulin (ED80 dose),serum insulin,7.58
"Cc1ncccc1CNC(=O)c1ccc2c(c1)CC[C@@H]1C[C@@](O)(CCC(F)(F)F)CC[C@@]21Cc1ccccc1 [Comparator A, (4βS,7S,8αR)-4β-benzyl-7-hydroxy-N-((2-methylpyridin-3-yl)methyl)-7-(3,3,3-trifluoropropyl)-4β,5,6,7,8,8α,9,10-octahydrophenanthrene-2-carboxamide]",inhibition at 0.00137174 µM,IL-1β; 1.371742 nM,32%
same,inhibition at 0.00411523 µM,IL-1β; 4.115226 nM,22%
same,inhibition at 0.0123457 µM,IL-1β; 12.34568 nM,22.8%
same,inhibition at 0.037037 µM,IL-1β; 37.03704 nM,17.3%
same,inhibition at 0.111111 µM,IL-1β; 111.1111 nM,8.6%
same,inhibition at 0.333333 µM,IL-1β; 333.3333 nM,12.2%
same,inhibition at 1 µM,IL-1β; 1000 nM,15%
same,inhibition at 3 µM,IL-1β; 3000 nM,16.4%
same,inhibition at 0.00137174 µM,IFNγ; 1.371742 nM,18.1%
same,inhibition at 0.00411523 µM,IFNγ; 4.115226 nM,-1.7%
same,inhibition at 0.0123457 µM,IFNγ; 12.34568 nM,0.016%
same,inhibition at 0.037037 µM,IFNγ; 37.03704 nM,-9.81%
same,inhibition at 0.111111 µM,IFNγ; 111.1111 nM,8.74%
same,inhibition at 0.333333 µM,IFNγ; 333.3333 nM,-6.32%
same,inhibition at 1 µM,IFNγ; 1000 nM,16.5%
same,inhibition at 3 µM,IFNγ; 3000 nM,28%
same,inhibition at 0.00137174 µM,TNFα; 1.371742 nM,18.1%
same,inhibition at 0.00411523 µM,TNFα; 4.115226 nM,-0.861%
same,inhibition at 0.0123457 µM,TNFα; 12.34568 nM,0.0309%
same,inhibition at 0.037037 µM,TNFα; 37.03704 nM,-4.19%
same,inhibition at 0.111111 µM,TNFα; 111.1111 nM,-3.82%
same,inhibition at 0.333333 µM,TNFα; 333.3333 nM,-4.61%
same,inhibition at 1 µM,TNFα; 1000 nM,-5.44%
same,inhibition at 3 µM,TNFα; 3000 nM,-3.04%
same,inhibition at 0.00137174 µM,IL-6; 1.371742 nM,1.46%
same,inhibition at 0.00411523 µM,IL-6; 4.115226 nM,-4.34%
same,inhibition at 0.0123457 µM,IL-6; 12.34568 nM,-1.13%
same,inhibition at 0.037037 µM,IL-6; 37.03704 nM,-3.52%
same,inhibition at 0.111111 µM,IL-6; 111.1111 nM,-3.5%
same,inhibition at 0.333333 µM,IL-6; 333.3333 nM,-2.83%
same,inhibition at 1 µM,IL-6; 1000 nM,-0.89%
same,inhibition at 3 µM,IL-6; 3000 nM,-1.97%

# Source: patent US8552035B2, “Phenanthrenone compounds, compositions and methods” (Pfizer Inc., priority 2008, dated 2013)
